Test results as given in patent publication US8410056B2, “Pro-oxidant anti-cancer compounds” (priority 2006, dated 2013).
“Also recorded” adds a separate entry of the source.

Legend:
[1] = biological target: T1, complex II/SDH-dependent activity in NeuTL cells (Mus musculus, UniProt Q8K2B3+Q9CQA3+Q9CXV1+Q9CZB0); assay: MTT reduction assay of complex II/SDH activity in whole cells; format: cell-based, murine
T1 construct: For specifically measuring complex II activity in whole cells; endogenous in cells; host or cells: NeuTL murine breast cancer cells
T1 sequence (Q8K2B3 43-664): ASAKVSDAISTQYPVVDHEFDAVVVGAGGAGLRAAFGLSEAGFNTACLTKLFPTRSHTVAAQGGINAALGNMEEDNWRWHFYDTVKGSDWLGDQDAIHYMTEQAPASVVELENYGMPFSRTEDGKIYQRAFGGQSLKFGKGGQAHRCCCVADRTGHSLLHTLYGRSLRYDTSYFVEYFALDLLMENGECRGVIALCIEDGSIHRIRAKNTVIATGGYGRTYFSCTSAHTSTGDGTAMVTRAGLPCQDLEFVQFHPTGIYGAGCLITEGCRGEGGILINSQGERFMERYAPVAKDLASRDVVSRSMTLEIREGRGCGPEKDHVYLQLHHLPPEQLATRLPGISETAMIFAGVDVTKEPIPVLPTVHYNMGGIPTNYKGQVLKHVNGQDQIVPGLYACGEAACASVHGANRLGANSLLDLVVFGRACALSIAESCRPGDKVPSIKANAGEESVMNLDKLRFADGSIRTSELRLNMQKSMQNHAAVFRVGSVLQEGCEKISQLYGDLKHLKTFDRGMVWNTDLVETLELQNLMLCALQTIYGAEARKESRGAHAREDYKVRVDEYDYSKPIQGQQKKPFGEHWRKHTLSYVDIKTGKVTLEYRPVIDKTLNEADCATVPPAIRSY
T1 sequence (Q9CQA3 31-282): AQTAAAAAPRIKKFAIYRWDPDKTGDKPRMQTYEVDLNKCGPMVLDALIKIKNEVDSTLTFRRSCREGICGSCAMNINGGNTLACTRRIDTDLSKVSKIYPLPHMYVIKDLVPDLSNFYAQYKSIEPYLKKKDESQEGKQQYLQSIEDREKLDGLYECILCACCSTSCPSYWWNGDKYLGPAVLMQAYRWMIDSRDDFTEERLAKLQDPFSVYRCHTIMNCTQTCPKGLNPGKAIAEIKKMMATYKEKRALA
T1 sequence (Q9CZB0 30-169): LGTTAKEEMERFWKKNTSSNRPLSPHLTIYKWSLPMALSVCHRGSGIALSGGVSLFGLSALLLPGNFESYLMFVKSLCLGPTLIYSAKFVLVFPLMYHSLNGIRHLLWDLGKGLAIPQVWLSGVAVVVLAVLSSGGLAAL
T1 sequence (Q9CXV1 57-159): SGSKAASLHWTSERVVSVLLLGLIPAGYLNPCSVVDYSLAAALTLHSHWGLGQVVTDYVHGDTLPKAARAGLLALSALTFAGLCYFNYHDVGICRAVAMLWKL
Description: MTT assay. MTT solutions were prepared immediately before use by dissolving 2.5 mg/ml 3-(4,5-dimethyl[…] (MTT) (Sigma) in PBS alone or phenol red-free RPMI medium containing 20 mM succinic acid, pH 7.4. Stock solutions of 3-nitropropionic acid (3NPA) in ethanol, thenoyltrifluoroacetone (TTFA) in DMSO, 3-BP in PBS, α-TOS in DMSO, and MitoQ (Alleva et al, 2003, James et al, 2005) in ethanol were prepared. The drugs were tested on NeuTL cells cultured in exponential growth phase in 96-well microtitre plates using 4-8 replicate wells per dilution assayed. To assess the ability of MitoQ to restore MTT reduction, cells were pre-incubated for 60 min with 2 or 5 μM MitoQ. Final concentrations of ethanol or DMSO in cultures were ≦0.1%. Treated and control cells were allowed to reduce MTT to blue formazan crystals for 2 or 4 h at 37° C. and 5% CO2. After incubation, culture supernatants were removed except for 30 μl, before the formazan crystals were solubilized by addition of 150 μl DMSO, and absorbance values were measured at 570 nm using a Fluorostar Optima plate reader.
To this end, the present inventors investigated whether α-TOS interferes with UbQ binding in complex II. For specifically measuring complex II activity in whole cells, a short-term (1-2 h) assay was used based on the reduction of the tetrazolium salt, MTT (Maehara et al, 1988). […] For this, oxidative respiration of murine NeuTL breast cancer cells was sustained on high levels of succinate (20 mM), thereby promoting the SDH activity of complex II (Maehara et al, 1988). The cells were then assayed within 1-2 h for their ability to enzymatically reduce MTT, which under conditions of high succinate becomes a specific indicator of complex II/SDH-dependent activity (Maehara et al, 1988, Berridge and Tan, 1993).

[2] = test system: Chinese hamster lung fibroblasts (B1, B10, B9, B9rec cells); assay: ROS, SDH activity and apoptosis in complex I- and complex II-deficient cells; format: cell-based
Description: Cell culture and treatment. […] Cells were cultured in DMEM with 10% FCS, 100 U/ml penicillin and 100 μg/ml streptomycin at 37° C. in a humidified atmosphere of 5% CO2. Mitochondrial complex I-deficient (Breen and Scheffler 1979; DeFrancesco et al 1976; Scheffler et al 2004) and complex II-deficient cells (Albayrak et al 2003; Oostveen et al 1995) were grown in DMEM with 10% FCS, […] glucose and non-essential amino acids.
Assessment of ROS accumulation. Cellular ROS were detected with the probe dihydroethidinium (DHE) (Molecular Probes) by flow cytometry (Weber et al, 2003), or by trapping with 5,5-dimethyl-1-pyrroline N-oxide (DMPO; Sigma) using electron paramagnetic resonance (EPR) spectro-scopy (Weber et al, 2003). In some studies, the cells were pre-treated for 1 h with 2 μM MitoQ (James et al, 2005) or coincubated with SOD (PEG-SOD, 750 units/ml; Sigma).
Apoptosis assessment. Apoptosis was quantified using the annexin V-FITC method, which detects phosphatidyl serine externalized in the early phases of apoptosis (Boersma et al, 1996). Briefly, cells were plated at 10^5 per well in 24-well plates and, after an overnight recuperation, treated with α-TOS or 3-BP alone or in combination. Floating and attached cells were harvested, washed with PBS, resuspended in 0.2 ml binding buffer (10 mM Hepes, 140 mM NaCl, 5 mM CaCl2, pH 7.4), incubated for 30 min at 4° C. with 2 μl annexin V-FITC (PharMingen), supplemented with 200 μl of 50 μg/ml propidium iodide (PI; Sigma), and analyzed by flow cytometry (FACScalibur, Becton Dickinson) using channel 1 for annexin V-FITC binding and channel 2 for PI staining. Cell death was quantified as the percentage of cells with increased annexin V binding and PI staining.
Complex I- and complex II-deficient cells were also used to confirm the above in vitro results of Example 6.

[3] = test system: MCF-7 tumors; assay: MCF-7 xenograft in nude mice; format: in vivo; settings: 10 μmoles i.p. every 3 d
[4] = test system: mesothelioma; assay: Clinical study, patient with mesothelioma; format: in vivo
Description: α-TOS was used to treat mesothelioma in a human cancer patient. […] The blood plasma levels were monitored and levels of α-TOS in the plasma attained 50 μM over prolonged periods during continual application. This is more than sufficient to kill the cancer cells based on in vitro analysis.
The patient was originally receiving high dose opiate medications, neuropathic pain medications, home oxygen, and was predicted to have a life expectancy of 6-8 weeks. After treatment with α-TOS, the patient no longer required analgesia or oxygen.
In December 2005, the patient started receiving transdermal delivery of α-TOS, prepared in a base cream and solubilised with dimethyl sulfoxide (DMSO).
In April 2007, therapy with α-TOS was commenced using a modified formulation mixed in a lipodermal cream (see below). […] In addition, a palpable lesion was visible growing out between the ribs and the right anterior chest wall. The patient was in very poor condition with a low ECOG- no CT scan could be performed at the time of commencing the α-TOS treatment because the patient was too moribund.
α-TOS formulation: 500 gms of Lipoderm cream plus 60 gms α-TOS compounded by the hospital pharmacy. About 30 gms of compounded mix was administered every few days, and the upper body was wrapped in plastic film (“saran wrap”) to improve absorption.

[5] = test system: erbB2 highly positive breast carcinomas
Description: (A) Nude mice were inoculated with MCF-7 cells and, after tumors became established, the animals were treated once every 3 d with 10 μmoles per mouse of α-TOS dissolved in DMSO or with DMSO alone, by intraperitoneal (i.p.) injection. Tumor size was measured using calipers and was correlated to the size of the carcinomas at the onset of the therapy. Four animals were used in each group. The results shown are mean values±S.E. The symbol ‘*’ denotes significant difference (p<0.05). (B) Female FVB/N erbB2 mice with palpable tumors (see General Materials and Methods) received either 10 μmoles α-TOS solubilized in corn oil/4% ethanol (n=11) or the corn oil/4% ethanol alone (control, n=9) by i.p. injection once every 3 d, or 0.2 μmoles 3-BP (n=8) in PBS at the tumor site every day. Tumor size was recorded using calipers. Two independent experiments were conducted. Results are represented as mean values±S.E. The symbol ‘*’ denotes significant difference (p<0.05) in the analysis of variance between the 3-BP and α-TOS curves.
Mouse tumor experiments. Nude mice were inoculated subcutaneously with MCF-7 cells (2×10^6 cells/mouse). After tumors developed (diameter of 3-7 mm), mice were injected intraperitoneally with 10 μmoles α-TOS in DMSO every 3 days. Control mice were injected with an equal volume (100 μl) of DMSO only. Tumor size was estimated by measuring with digital calipers. A colony of transgenic FVB/N2O2 rat c-neu mice carrying the rat HER-2/neu protooncogene driven by the MMTV promoter on the H-2^q FVB/N background (Guy et al, 1992) was established at the Griffith University Animal Facility and maintained under strict inbreeding conditions. The presence of the transgene was routinely confirmed by PCR. Approximately 70% of the female mice developed spontaneous mammary carcinomas with a mean latency time of 10 months. Female transgenic FVB/N2O2 rat c-neu mice bearing progressively growing tumors with a mean diameter of 10±5 mm were randomly assigned to control or treatment groups. Tumor size was measured using digital calipers. […]

[6] = cited from earlier work
[7] = compared to parental (B1) or B10 cells

Cc1c(C)c2c(c(C)c1OC(=O)CCC(=O)O)CC[C@@](C)(CCC[C@H](C)CCC[C@H](C)CCCC(C)C)O2 [Compound 1, α-tocopheryl succinate]
inhibition of MTT reduction after MitoQ pre-incubation ([1]; cells pre-incubated 1 h with MitoQ): significantly overcome by pre-incubation of the cells with MitoQ | enzymatic reduction of MTT ([1]; within a few hours of treatment): significant decreases occurring in the levels of MTT reduction | apoptosis in B1, B10 and B9 cells [2]: initiated apoptosis | cell killing in CII-reconstituted B9 cells ([2]; CybL-mutant (B9) cells after reconstitution of CII): restored cell sensitivity to α-TOS-induced killing | ROS accumulation in CII-dysfunctional B9 cells [2, 7]: lower levels of ROS accumulation | apoptosis in CII-dysfunctional B9 cells [2, 7]: relatively resistant to apoptosis | tumor growth [3]: repressed the growth of tumors in the treated group of mice with an overall reduction in tumor size | clinical effect ([4]; human patient, α-TOS therapy): worked very effectively; also recorded: shrunk dramatically | side effects ([4]; human patient, α-TOS therapy): non-toxic with no observable side-effects and was well tolerated; also recorded: no obvious side-effects from the α-TOS therapy apart from a mild itch | levels of α-TOS in the plasma ([4]; human, transdermal, continual application, over prolonged periods): 50 µM | clinical response, DMSO base cream ([4]; transdermal α-TOS in base cream solubilised with DMSO): showed clinical response | side effects, DMSO base cream ([4]; transdermal α-TOS in base cream solubilised with DMSO, about 8 weeks): major skin reaction problems secondary to DMSO | reduction in the average size of tumors ([5]; about, over the 2 weeks of treatment, 10 μmoles i.p. every 3 d): 30-40% | tumor growth ([5]; α-TOS 10 μmoles i.p. every 3 d, 3-BP 0.2 μmoles daily intratumorally): statistically more effective (p<0.05 by analysis of covariance) than 3-BP | pKa [6]: < 6
